SMILES strings stand for the structures.

The record followed here is patent publication US7662814B2, “4-aminothieno[2,3-d]pyrimidine-6-carbonitrile derivatives as PDE7 inhibitors” (Laboratorios Almirall, S.A., priority 2003, dated 2010).

By melting point is commonly meant the temperature of the solid-liquid transition.

Take `CCCCNc1nc(-c2cc(OC)c(OC)c(OC)c2)nc2sc(C#N)c(C)c12` [Example 69, 4-(Butylamino)-5-methyl-2-(3,4,5-trimethoxyphenyl)thieno[2,3-d]pyrimidine-6-carbonitrile]: the melting point is 192 to 194 °C.

Take `CCN(C)c1nc(-c2ccc(OC)cc2)nc2sc(C#N)c(C)c12` [Example 17, 4-[Ethyl(methyl)amino]-2-(4-methoxyphenyl)-5-methylthieno[2,3-d]pyrimidine-6-carbonitrile]: the melting point fell in the range of 122 to 123 °C.

`CCCCN(CCCC)c1nc(-c2ccc(OC)cc2)nc2sc(C#N)c(C)c12` [Example 14, 4-(Dibutylamino)-2-(4-methoxyphenyl)-5-methylthieno[2,3-d]pyrimidine-6-carbonitrile]: the melting point is 96 to 98 °C.

`COc1cc(-c2nc(NC(C)C)c3c(C)c(C#N)sc3n2)cc(OC)c1OC` [Example 70, 4-(Isopropylamino)-5-methyl-2-(3,4,5-trimethoxyphenyl)thieno[2,3-d]pyrimidine-6-carbonitrile] gave a melting point of 191 to 193 °C.

`Cc1c(C#N)sc2nc(-c3ccccc3)nc(N3CCNCC3)c12` [Example 8, 5-Methyl-2-phenyl-4-piperazin-1-ylthieno[2,3-d]pyrimidine-6-carbonitrile] yielded a melting point of 251 to 253 °C.

For `Cc1c(C#N)sc2nc(CCCc3ccccc3)nc(N3CCN(C)CC3)c12` [Example 130, 5-Methyl-4-(4-methylpiperazin-1-yl)-2-(3-phenylpropyl)thieno[2,3-d]pyrimidine-6-carbonitrile], the melting point is 101 to 103 °C.

Regarding `C#CCN(C)c1nc(-c2ccc(OC)cc2)nc2sc(C#N)c(C)c12` [Example 24, 2-(4-Methoxyphenyl)-5-methyl-4-[methyl(prop-2-ynyl)amino]thieno[2,3-d]pyrimidine-6-carbonitrile], the melting point was 160 to 171 °C.

In turn, `COc1cc(-c2nc(-n3ccnc3)c3c(C)c(C#N)sc3n2)cc(OC)c1OC` [Example 89, 4-(1H-Imidazol-1-yl)-5-methyl-2-(3,4,5-trimethoxyphenyl)thieno[2,3-d]pyrimidine-6-carbonitrile] returned a melting point of 238 to 240 °C.

In turn, `Cc1ccc(-c2nc(N3CCN(C)CC3)c3c(C)c(C#N)sc3n2)cc1` [Example 27, 5-Methyl-2-(4-methylphenyl)-4-(4-methylpiperazin-1-yl)thieno[2,3-d]pyrimidine-6-carbonitrile] gave a melting point of 207 to 209 °C.

Turning to `CCN1CCN(c2nc(-c3ccc(OC)cc3)nc3sc(C#N)c(C)c23)CC1` [Example 2, 4-(4-Ethylpiperazin-1-yl)-2-(4-methoxyphenyl)-5-methylthieno[2,3-d]pyrimidine-6-carbonitrile], the melting point fell in the range of 173 to 175 °C.

On to `CCNc1nc(-c2cc(OC)cc(OC)c2)nc2sc(C#N)c(C)c12` [Example 134], for which the melting point was in the range of 207 to 208 °C.

In the case of `CCC(C)Nc1nc(-c2cc(OC)c(OC)c(OC)c2)nc2sc(C#N)c(C)c12` (stereo not drawn) [Example 71, 4-(sec-Butylamino)-5-methyl-2-(3,4,5-trimethoxyphenyl)thieno[2,3-d]pyrimidine-6-carbonitrile], the melting point lay within 91 to 93 °C.

`COc1cc(-c2nc(-n3cncn3)c3c(C)c(C#N)sc3n2)cc(OC)c1OC` [Example 91, 5-Methyl-4-(1H-1,2,4-triazol-1-yl)-2-(3,4,5-trimethoxyphenyl)thieno[2,3-d]pyrimidine-6-carbonitrile] returned a melting point of 236 to 240 °C.

As for `CCN(CC)c1nc(-c2ccc(OC)c(OC)c2)nc2sc(C#N)c(C)c12` [Example 20, 4-(Diethylamino)-2-(3,4-dimethoxyphenyl)-5-methylthieno[2,3-d]pyrimidine-6-carbonitrile], the melting point is 159 to 161 °C.

For the compound `COc1cc(-c2nc(NC(C)(C)C)c3c(C)c(C#N)sc3n2)cc(OC)c1OC` [Example 74, 4-(tert-Butylamino)-5-methyl-2-(3,4,5-trimethoxyphenyl)thieno[2,3-d]pyrimidine-6-carbonitrile], the melting point lay within 195 to 197 °C.
